Test results taken from US12134788B2, “Engineered prephenate dehydrogenases and arogenate dehydrogenases and methods of using the same” (Wisconsin Alumni Research Foundation, priority 2017, dated 2024).
Numbering of substitutions follows the chain as printed.

Tests used:
[1] = system: Peanut PDH/ADH (AipaensisVYE8T), Arachis ipaensis, wild type; assay: ADH and PDH assay: steady-state kinetics and Tyr inhibition, peanut PDH/ADH; assay type: biochemical; conditions: 0-8 mM L-Tyr
Experimental: (§1) Kinetic parameters of purified recombinant proteins were determined from assays conducted at varying arogenate (19.5 μM-5 mM) and prephenate concentration (23.4 μM-6 mM). Standard assay conditions were 25 mM HEPES pH 7.6, 50 mM KCl and 10% (v/v) ethylene glycol, and 0.5 mM NADP^+ with varied substrate, concentrations. Reactions were initiated by addition of enzyme and incubated at 37° C. monitored every 10-15 seconds at […] using a microplate reader (Tecan Genios). Kinetic parameters were determined by fitting initial velocity data to the Michaelis-Menten equation using the Origin software (OriginLab).
(§2) Arogenate was prepared by enzymatic conversion of prephenate (Sigma-Aldrich) as previously reported^56. For Tyr inhibition assays, Tyr was dissolved in a slightly basic solution (0.025 N NaOH) due to solubility issues, thus the concentration of lysis buffer was increased to 500 mM HEPES final concentration to buffer against the changes by addition of Tyr in the reaction. Reactions containing varying amounts of Tyr (10 μM-8 mM) with 0.5 mM NADP^+ and either 1 mM arogenate or 0.8 mM prephenate were monitored as above.

[2] = system: AaPDH, A. aeolicus prephenate dehydrogenase; conditions: cited from earlier work
[3] = target: T1, Solanum lycopersicum SolyncADH variant D224N (Solanum lycopersicum, UniProt K4C5K7, D224N); assay: ADH and PDH assay: steady-state kinetics and Tyr inhibition, SolyncADH D224N; assay type: biochemical, Solanum lycopersicum (tomato); conditions: versus wild-type; ADH activity, 0-8 mM Tyr
T1 construct: D224N by site-directed mutagenesis
T1 sequence (K4C5K7 1-272 D224N): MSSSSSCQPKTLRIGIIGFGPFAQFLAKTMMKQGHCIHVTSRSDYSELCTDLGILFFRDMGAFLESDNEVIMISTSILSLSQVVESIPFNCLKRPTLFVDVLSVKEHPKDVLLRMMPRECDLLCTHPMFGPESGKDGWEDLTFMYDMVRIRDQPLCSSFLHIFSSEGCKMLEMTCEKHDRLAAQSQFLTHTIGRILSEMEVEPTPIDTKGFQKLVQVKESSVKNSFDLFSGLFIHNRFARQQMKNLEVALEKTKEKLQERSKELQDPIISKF
Experimental: as §1, §2

[4] = target: T2, SolyncADH (Slycopersicum06g050630), tomato noncanonical arogenate dehydrogenase, wild type (Solanum lycopersicum, UniProt K4C5K7); assay: ADH and PDH assay: steady-state kinetics and Tyr inhibition, SolyncADH wild type; assay type: biochemical
T2 construct: wild type
T2 sequence (K4C5K7 1-272): as the sequence (K4C5K7 1-272 D224N) above, with N224D counted along it
Experimental: as §1, §2

[5] = target: Arabidopsis thaliana AtADH2 variant D241N, SEQ ID NO: 12 (Arabidopsis thaliana, UniProt Q9LMR3, D275N); assay: Tyr inhibition of AtADH2 D241N; assay type: biochemical; conditions: versus wild-type; ADH activity, 0-8 mM Tyr
Sequence of Arabidopsis thaliana AtADH2 variant D241N, SEQ ID NO: 12 (Q9LMR3 37-358 D275N): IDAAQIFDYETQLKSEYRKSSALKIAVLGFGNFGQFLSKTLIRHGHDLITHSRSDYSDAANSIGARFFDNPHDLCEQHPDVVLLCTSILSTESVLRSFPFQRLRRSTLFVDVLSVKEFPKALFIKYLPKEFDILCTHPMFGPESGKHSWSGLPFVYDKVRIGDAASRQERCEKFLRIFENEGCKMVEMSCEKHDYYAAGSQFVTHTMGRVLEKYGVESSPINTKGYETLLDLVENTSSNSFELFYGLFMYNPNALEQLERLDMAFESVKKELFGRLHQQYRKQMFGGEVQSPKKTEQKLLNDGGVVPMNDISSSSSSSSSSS
Experimental: as §1, §2

[6] = target: T3, Medicago truncatula MtPDH variant C220D, SEQ ID NO: 1 (Medicago truncatula, UniProt A0A0A0R205, C220D); assay: ADH and PDH assay: steady-state kinetics and Tyr inhibition, MtPDH C220D; assay type: biochemical
T3 sequence (A0A0A0R205 1-268 C220D): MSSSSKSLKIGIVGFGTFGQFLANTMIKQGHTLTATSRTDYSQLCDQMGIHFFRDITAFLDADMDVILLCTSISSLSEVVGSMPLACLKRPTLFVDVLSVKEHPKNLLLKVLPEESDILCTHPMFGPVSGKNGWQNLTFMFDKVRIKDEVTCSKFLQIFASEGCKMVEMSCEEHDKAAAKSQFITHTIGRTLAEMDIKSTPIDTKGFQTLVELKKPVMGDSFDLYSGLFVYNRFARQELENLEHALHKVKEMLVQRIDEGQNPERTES
Experimental: as §1, §2

[7] = target: Glycine max GmPDH1 variant M219T/N222D (Glycine max, UniProt I1MYY4, M219T/N222D); assay: ADH and PDH assay: steady-state kinetics and Tyr inhibition, GmPDH1 M219T/N222D; assay type: biochemical, Glycine max (soybean); conditions: IC50^Tyr, 0.5 mM NADP^+
Sequence of Glycine max GmPDH1 variant M219T/N222D (I1MYY4 1-271 M219T/N222D): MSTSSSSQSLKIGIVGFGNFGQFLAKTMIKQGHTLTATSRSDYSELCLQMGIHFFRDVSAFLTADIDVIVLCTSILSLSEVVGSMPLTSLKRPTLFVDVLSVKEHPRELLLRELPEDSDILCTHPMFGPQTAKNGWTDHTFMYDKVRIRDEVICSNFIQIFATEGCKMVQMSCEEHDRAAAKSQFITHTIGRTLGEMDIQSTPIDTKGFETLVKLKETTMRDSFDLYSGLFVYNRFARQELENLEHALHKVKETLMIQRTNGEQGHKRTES
Experimental: as §1, §2

[8] = target: T4, MtncADH (Mt5g083530), Medicago truncatula noncanonical arogenate dehydrogenase, wild type (Medicago truncatula, UniProt A0A217FAR3); assay: ADH and PDH assay: steady-state kinetics and Tyr inhibition, MtncADH wild type; assay type: biochemical; conditions: for IC50: IC50^Tyr, 0.5 mM NADP^+
T4 construct: wild type
T4 sequence (A0A217FAR3 1-266): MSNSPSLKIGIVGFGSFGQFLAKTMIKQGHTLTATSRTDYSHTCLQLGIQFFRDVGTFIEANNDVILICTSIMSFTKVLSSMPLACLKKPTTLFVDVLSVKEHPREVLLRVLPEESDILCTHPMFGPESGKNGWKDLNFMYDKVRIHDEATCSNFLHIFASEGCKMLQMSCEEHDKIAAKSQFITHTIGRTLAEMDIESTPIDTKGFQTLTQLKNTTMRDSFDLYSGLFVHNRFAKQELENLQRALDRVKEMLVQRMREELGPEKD
Experimental: as §1, §2

[9] = target: T5, Glycine max GmPDH1 variant N222D, SEQ ID NO: 2 (Glycine max, UniProt I1MYY4, N222D); assay: ADH and PDH assay: steady-state kinetics and Tyr inhibition, GmPDH1 N222D; assay type: biochemical, Glycine max (soybean); conditions: IC50^Tyr, 0.5 mM NADP^+
T5 sequence (I1MYY4 1-271 N222D): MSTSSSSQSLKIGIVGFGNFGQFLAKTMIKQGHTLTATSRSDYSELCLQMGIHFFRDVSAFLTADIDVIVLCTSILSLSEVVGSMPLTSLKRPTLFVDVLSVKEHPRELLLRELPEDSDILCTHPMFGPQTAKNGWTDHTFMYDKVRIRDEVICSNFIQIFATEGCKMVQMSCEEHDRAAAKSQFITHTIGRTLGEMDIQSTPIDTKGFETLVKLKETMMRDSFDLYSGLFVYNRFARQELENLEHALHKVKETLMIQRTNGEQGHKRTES
Experimental: as §1, §2

[10] = target: T6, Medicago truncatula MtncADH variant D220C, SEQ ID NO: 10 (Medicago truncatula, UniProt A0A217FAR3, D220C); assay: ADH and PDH assay: steady-state kinetics and Tyr inhibition, MtncADH D220C; assay type: biochemical
T6 construct: D220C by site-directed mutagenesis
T6 sequence (A0A217FAR3 1-266 D220C): T4 sequence (A0A217FAR3 1-266) with D220C
Experimental: as §1, §2

[11] = target: Glycine max GmPDH1 variant N222A (Glycine max, UniProt I1MYY4, N222A); assay: ADH and PDH assay: steady-state kinetics and Tyr inhibition, GmPDH1 N222A; assay type: biochemical, Glycine max (soybean); conditions: 0-8 mM L-Tyr
Sequence of Glycine max GmPDH1 variant N222A (I1MYY4 1-271 N222A): as the sequence (I1MYY4 1-271 M219T/N222D) above, with T219M, D222A counted along it
Experimental: as §1, §2

[12] = target: Glycine max GmPDH1 variant M219T (Glycine max, UniProt I1MYY4, M219T); assay: ADH and PDH assay: steady-state kinetics and Tyr inhibition, GmPDH1 M219T; assay type: biochemical, Glycine max (soybean); conditions: 0-8 mM L-Tyr
Sequence of Glycine max GmPDH1 variant M219T (I1MYY4 1-271 M219T): as the sequence (I1MYY4 1-271 M219T/N222D) above, with D222N counted along it
Experimental: as §1, §2

Question: Which results are given for `N[C@@H](Cc1ccc(O)cc1)C(=O)O` [Tyr, L-Tyrosine]?
Answer: Tyr inhibition [1]: insensitive to Tyr inhibition; Tyr sensitivity [2]: sensitive to Tyr; sensitivity to Tyr inhibition [3]: significantly less sensitive to Tyr inhibition; IC50 [4]: 12.8 mM; sensitivity to Tyr inhibition [5]: significantly less sensitive to Tyr inhibition; IC50 [6]: 8.2 ± 0.9 mM; IC50 ([7]; substrate arogenate (1 mM)): 5.9 ± 0.5 mM; IC50 ([7]; substrate prephenate (0.8 mM)): 11.1 ± 1.2 mM; IC50 ([8]; substrate arogenate (1 mM)): 2.2 ± 0.5 mM; IC50 ([8]; substrate prephenate (0.8 mM)): 0.6 ± 0.1 mM; IC50 (Tyr), in words ([8]; sensitivity to Tyr): in the mM range; IC50 ([9]; substrate arogenate (1 mM)): 4.7 ± 0.4 mM; IC50 ([9]; substrate prephenate (0.8 mM)): 5.3 ± 0.4 mM; IC50 [10]: 7.7 ± 1.5 mM; sensitivity to Tyr inhibition ([10]; versus wild-type, ADH activity, 0-8 mM Tyr): significantly less sensitive to Tyr inhibition; inhibition by Tyr [11]: not inhibited by Tyr; inhibition by Tyr [12]: not inhibited by Tyr
